In US20240391862A1, “(1,4,5-TRISUBSTITUTED-1H-PYRAZOL-3-YL)OXY-2-ALKOXY ALKYL ACIDS AND THEIR DERIVATIVES, THEIR SALTS AND THEIR USE AS HERBICIDAL AGENTS” (Bayer AKtiengesellschaft, priority 2021, published 2024):

Tests used:
ZEAMX [1] = test: Post-emergence herbicidal effect and crop plant compatibility, greenhouse pot test; type: in vivo, Zea mays; conditions: Zea mays, 504 h, one-leaf stage, rated visually after about 3 weeks vs untreated controls; for plant injury at 20 g/ha: read-out: Post-emergence effect at 20 g/ha against ZEAMX in %; for plant injury at 80 g/ha: read-out: Post-emergence effect at 80 g/ha against ZEAMX in %; for plant injury at 320 g/ha: read-out: Post-emergence effect at 320 g/ha against ZEAMX in %
Outline: (§1)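 Visual % activity scored roughly 3 weeks post-spray against untreated plants, where 100% means death and 0% equals control. Plants were treated at the one-leaf stage, 2 to 3 weeks after sowing in sandy loam, at 20 to 320 g/ha.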

BRSNW = type: in vivo, Brassica napus; conditions: one-leaf stage, rated visually after about 3 weeks vs untreated controls
From the text: (§2) • ALOMY: Alopecurus myosuroides SETVI: Setaria viridis • AVEFA: Avena fatua POLCO: Fallopia convolvulus • AMARE: Amaranthus retroflexus ECHCG: Echinochloa crus-galli • LOLRJ: Lolium rigidum STEME: Stellaria media • VERPE: Veronica persica MATIN: Tripleurospermum inodorum • DIGSA: Digitaria sanguinalis ABUTH: Abutylon threophrasti • TRZAS: Triticum aestivum VIOTR: Viola tricolor • BRSNW: Brassica napus ZEAMX: Zea mays • PHBPU: Ipomoea purpurea GLXMA: Glycine max • ORYSA: Oryza sativa HORMU: Hordeum murinum
Seeds of monocotyledonous and dicotyledonous weeds and crop plants are placed in sandy loam in plastic or organic planting pots, covered with soil and cultivated in a greenhouse under controlled growth conditions. 2 to 3 weeks after sowing, the trial plants are treated at the one-leaf stage. The compounds of the invention, formulated in the form of wettable powders (WP) or as emulsion concentrates (EC), are then sprayed onto the green parts of the plants as aqueous suspension or emulsion with addition of 0.5% additive at a water application rate of 600 l/ha (converted). After the test plants have been kept in the greenhouse under optimum growth conditions for about 3 weeks, the activity of the preparations is rated visually in comparison to untreated controls. For example, 100% activity=the plants have died, 0% activity=like control plants.
Tables 20a to 38c below show the effects/crop compatibilities of selected compounds of the general formula (I) on various harmful plants at an application rate corresponding to 20 to 320 g/ha, which were obtained by the trial procedure specified above.

TRZAS = test: Post-emergence herbicidal effect and crop plant compatibility, greenhouse pot test; type: in vivo, Triticum aestivum; conditions: Triticum aestivum, 504 h, 20 g/ha, one-leaf stage, rated visually after about 3 weeks vs untreated controls, read-out: Post-emergence effect at 20 g/ha against TRZAS in %
Outline: as §1

SETVI = test: Pre-emergence herbicidal effect, greenhouse pot test; type: in vivo, Setaria viridis; conditions: scored visually after about 3 weeks vs untreated controls; for pest or weed control at 320 g/ha: Setaria viridis, 504 h, read-out: Pre-emergence effect at 320 g/ha against SETVI in %
From the text: (§3) Seeds of monocotyledonous and dicotyledonous weed plants and crop plants are placed in plastic or organic planting pots and covered with soil. The compounds of the invention, formulated in the form of wettable powders (WP) or as emulsion concentrates (EC), are then applied to the surface of the covering soil as aqueous suspension or emulsion with addition of 0.5% additive at a water application rate equivalent to 600 l/ha. After the treatment, the pots are placed in a greenhouse and kept under good growth conditions for the trial plants. After about 3 weeks, the effect of the preparations is scored visually in comparison with untreated controls as percentages. For example, 100% activity=the plants have died, 0% activity=like control plants.
(§4) Tables 1a to 19c below show the effects/crop compatibilities of selected compounds of the general formula (I) on various harmful plants at an application rate corresponding to 20 to 320 g/ha, which were obtained by the trial procedure specified above.
as §2

MATIN = test: as above; type: in vivo, Tripleurospermum inodorum; conditions: scored visually after about 3 weeks vs untreated controls; for pest or weed control at 320 g/ha: Tripleurospermum inodorum, 504 h, read-out: Pre-emergence effect at 320 g/ha against MATIN in %
From the text: as §3, §4, §2

KCHSC = test: as above; type: in vivo; conditions: scored visually after about 3 weeks vs untreated controls
From the text: as §3, with “control plants. Tables 1a to 19c below show the effects/crop compatibilities of selected compounds of the general formula (I) on various harmful plants at an application rate corresponding to 20 to 320 g/ha, which were obtained by the trial procedure specified above.” for “control plants.”

POLCO = test: as above; type: in vivo, Fallopia convolvulus; conditions: scored visually after about 3 weeks vs untreated controls; for pest or weed control at 320 g/ha: Fallopia convolvulus, 504 h, read-out: Pre-emergence effect at 320 g/ha against POLCO in %
From the text: as §3, §4, §2

ABUTH = test: as above; type: in vivo, Abutilon theophrasti; conditions: scored visually after about 3 weeks vs untreated controls
From the text: as §3, §4, §2

AMARE = test: as above; type: in vivo, Amaranthus retroflexus; conditions: scored visually after about 3 weeks vs untreated controls; for pest or weed control at 320 g/ha: Amaranthus retroflexus, 504 h, read-out: Pre-emergence effect at 320 g/ha against AMARE in %
From the text: as §3, §4, §2

AVEFA = test: as above; type: in vivo, Avena fatua; conditions: scored visually after about 3 weeks vs untreated controls
From the text: as §3, §4, §2

DIGSA = test: as above; type: in vivo, Digitaria sanguinalis; conditions: scored visually after about 3 weeks vs untreated controls
From the text: as §3, §4, §2

ECHCG = test: as above; type: in vivo, Echinochloa crus-galli; conditions: scored visually after about 3 weeks vs untreated controls; for pest or weed control at 320 g/ha: Echinochloa crus-galli, 504 h, read-out: Pre-emergence effect at 320 g/ha against ECHCG in %
From the text: as §3, §4, §2

LOLRI = test: as above; type: in vivo, Lolium rigidum; conditions: scored visually after about 3 weeks vs untreated controls
From the text: as §3, §4, §2

ZEAMX [2] = test: Pre-emergence herbicidal effect and crop plant compatibility, greenhouse pot test; type: in vivo, Zea mays; conditions: scored visually after about 3 weeks vs untreated controls
From the text: as §3, §4, §2

PHBPU = test: Pre-emergence herbicidal effect, greenhouse pot test; type: in vivo, Ipomoea purpurea; conditions: scored visually after about 3 weeks vs untreated controls
From the text: as §3, §4, §2

VIOTR = test: as above; type: in vivo, Viola tricolor; conditions: scored visually after about 3 weeks vs untreated controls
From the text: as §3, §4, §2

ALOMY = test: as above; type: in vivo, Alopecurus myosuroides; conditions: scored visually after about 3 weeks vs untreated controls
From the text: as §3, §4, §2

VERPE = test: as above; type: in vivo, Veronica persica; conditions: scored visually after about 3 weeks vs untreated controls
From the text: as §3, §4, §2

Structure (SMILES) | plant injury at 20 g/ha (ZEAMX [1]) | plant injury at 80 g/ha (ZEAMX [1]) | plant injury at 320 g/ha (ZEAMX [1]) | Pre-emergence effect at 80 g/ha against POLCO in % (POLCO) | Pre-emergence effect at 320 g/ha against ABUTH in % (ABUTH) | Pre-emergence effect at 80 g/ha against AMARE in % (AMARE) | Pre-emergence effect at 80 g/ha against AVEFA in % (AVEFA) | Pre-emergence effect at 320 g/ha against AVEFA in % (AVEFA) | Pre-emergence effect at 320 g/ha against DIGSA in % (DIGSA) | Pre-emergence effect at 80 g/ha against ECHCG in % (ECHCG) | Pre-emergence effect at 320 g/ha against LOLRI in % (LOLRI) | Pre-emergence effect at 320 g/ha against PHBPU in % (PHBPU) | Pre-emergence effect at 80 g/ha against VIOTR in % (VIOTR) | Pre-emergence effect at 320 g/ha against VIOTR in % (VIOTR) | Pre-emergence effect at 320 g/ha against ALOMY in % (ALOMY) | pest or weed control at 320 g/ha (SETVI; 320 g/ha) | pest or weed control at 320 g/ha (MATIN; 320 g/ha) | pest or weed control at 320 g/ha (POLCO; 320 g/ha) | pest or weed control at 320 g/ha (AMARE; 320 g/ha) | pest or weed control at 320 g/ha (ECHCG; 320 g/ha) | other results
CCOC(Oc1nn(-c2ccccc2F)c(-c2ccc(F)nc2)c1Br)C(=O)O (single isomer, unassigned) [Example I-65, (2R*)-{[4-Bromo-1-(2-fluorophenyl)-5-(6-fluoropyridin-3-yl)-1H-pyrazol-3-yl]oxy}(ethoxy)acetic acid] | 0% | 0% | 0% |  |  |  |  |  |  |  |  |  |  |  |  |  |  |  |  |  | Post-emergence effect at 320 g/ha against BRSNW in % (BRSNW): 0%; percent crop injury (phytotoxicity) to wheat, post-emergence at 20 g/ha (TRZAS): 0%
COC(=O)CCOC(=O)C(OC)Oc1nn(-c2ncccc2F)c(-c2cncc(F)c2)c1C1CC1 (single isomer, unassigned) [Example I-76] |  |  |  | 90% | 90% | 100% | 90% | 100% | 90% | 90% | 100% | 90% | 100% | 100% | 90% |  |  |  |  |  | Pre-emergence effect at 80 g/ha against SETVI in % (SETVI; 80 g/ha): 90%; Pre-emergence effect at 320 g/ha against SETVI in % (SETVI; 320 g/ha): 100%; Pre-emergence effect at 320 g/ha against MATIN in % (MATIN; 320 g/ha): 90%; Pre-emergence effect at 20 g/ha against KCHSC in % (KCHSC; 20 g/ha): 90%; Pre-emergence effect at 80 g/ha against KCHSC in % (KCHSC; 80 g/ha): 90%; Pre-emergence effect at 320 g/ha against KCHSC in % (KCHSC): 100%; Pre-emergence effect at 320 g/ha against POLCO in % (POLCO; 320 g/ha): 90%; Pre-emergence effect at 80 g/ha against ABUTH in % (ABUTH; 80 g/ha): 90%; Pre-emergence effect at 20 g/ha against AMARE in % (AMARE): 80%; Pre-emergence effect at 320 g/ha against AMARE in % (AMARE; 320 g/ha): 100%; Pre-emergence effect at 80 g/ha against DIGSA in % (DIGSA; 80 g/ha): 80%; Pre-emergence effect at 320 g/ha against ECHCG in % (ECHCG; 320 g/ha): 100%; Pre-emergence effect at 80 g/ha against LOLRI in % (LOLRI): 90%; Pre-emergence effect at 20 g/ha against ZEAMX in % (ZEAMX [2]): 20%; Pre-emergence effect at 80 g/ha against ALOMY in % (ALOMY): 90%
COC(=O)C(OC)Oc1nn(-c2cc(F)ccc2F)c(-c2cncc(F)c2)c1C1CC1 (centres unmarked) [Example I-31, Methyl {[4-cyclopropyl-1-(2,5-difluorophenyl)-5-(5-fluoropyridin-3-yl)-1H-pyrazol-3-yl]oxy}(methoxy)acetate] |  |  |  | 100% | 80% | 100% | 90% | 90% | 90% | 90% | 100% | 90% | 100% | 100% | 100% | 90% | 100% | 100% | 100% | 100% | Pre-emergence effect at 80 g/ha against MATIN in % (MATIN): 90%; Pre-emergence effect at 20 g/ha against POLCO in % (POLCO): 80%; Pre-emergence effect at 20 g/ha against AMARE in % (AMARE): 80%; Pre-emergence effect at 320 g/ha against VERPE in % (VERPE): 90%; Pre-emergence effect at 80 g/ha against PHBPU in % (PHBPU): 90%
COC(Oc1nn(-c2cc(F)ccc2F)c(-c2cncc(F)c2)c1C1CC1)C(=O)O (centres unmarked) [Example I-34] |  |  |  | 90% | 90% | 100% | 90% | 100% | 80% | 90% | 100% | 90% | 100% | 100% | 100% | 90% | 90% | 90% | 100% | 100% | Pre-emergence effect at 80 g/ha against MATIN in % (MATIN): 90%; Pre-emergence effect at 20 g/ha against POLCO in % (POLCO): 90%; Pre-emergence effect at 20 g/ha against AVEFA in % (AVEFA; 20 g/ha): 80%; Pre-emergence effect at 320 g/ha against VERPE in % (VERPE): 80%; Pre-emergence effect at 80 g/ha against LOLRI in % (LOLRI): 90%; Pre-emergence effect at 80 g/ha against PHBPU in % (PHBPU): 90%; Pre-emergence effect at 20 g/ha against VIOTR in % (VIOTR; 20 g/ha): 80%; Pre-emergence effect at 80 g/ha against ALOMY in % (ALOMY): 90%
COC(Oc1nn(-c2ncccc2F)c(-c2ccc(F)nc2)c1Br)C(=O)O (centres unmarked) [Example I-45] | 0% | 0% | 0% |  |  |  |  |  |  |  |  |  |  |  |  |  |  |  |  |  | Post-emergence effect at 320 g/ha against BRSNW in % (BRSNW): 0%; percent crop injury (phytotoxicity) to wheat, post-emergence at 20 g/ha (TRZAS): 0%
COC(=O)C(OC)Oc1nn(-c2ccccc2F)c(-c2ccc(F)nc2)c1I (centres unmarked) [Example I-49] |  |  |  |  |  | 90% |  | 90% | 100% |  | 90% |  |  | 90% | 90% | 100% | 90% | 80% | 100% | 90% | Pre-emergence effect at 320 g/ha against KCHSC in % (KCHSC): 100%; Pre-emergence effect at 20 g/ha against ZEAMX in % (ZEAMX [2]): 0%; Pre-emergence effect at 80 g/ha against ZEAMX in % (ZEAMX [2]; 80 g/ha): 0%
